The source of these data is patent publication US9522924B1, “Pyridone derivatives as acid secretion inhibitors and process for preparation thereof” (Emcure Pharmaceuticals Limited, priority 2012, dated 2016).

Test [1] deals with T1, H^+/K^+ ATPase (Oryctolagus cuniculus, UniProt P27112).
T1 construct: using an enzyme isolated from the rabbit or porcine (pig) fundus; from tissue; host or cells: rabbit gastric fundus
Description: H+K+-ATPase assay (p-NPP to p-NP), enzyme from rabbit fundus. It is filed as biochemical. Particulars: pH 6.0, 30 min pre-incubation at 37° C. On the procedure:
(§1) H+K+-ATPase Assay Protocol Description:
(§2) Evaluation of the effects of compounds on the activity of the H^+/K^+ ATPase activity was quantified by measuring the formation of para-nitrophenol (p-NP) from para-nitrophenol phosphate (p-NPP) using an enzyme isolated from the rabbit or porcine (pig) fundus.
(§3) The test compound, reference compound or water (control) are pre-incubated for 30 min at 37° C. with the enzyme (5 μg) in a buffer containing 40 mM Hepes/Tris (pH 6.0), 20 mM KCl, 5 mM MgCl2 and 1 mM ouabain. The enzymatic reaction was then initiated by the addition of 2 mM p-NPP.
(§4) The absorbance was measured immediately at k=405 nm using a microplate reader (EnVision, Perkin Elmer). This measurement at t=0 was also used to verify any compound interference with the spectrophotometric detection at the selected wavelength.
(§5) Thereafter, the mixture was incubated for 15 min at 37° C., after which time the reaction is stopped by addition of 0.5 M NaOH and a second measurement is made at the same wavelength (t=15). The enzyme activity is determined by subtracting the signal measured at t=0 from that measured at t=15. The results are expressed as a percent inhibition of the control enzyme activity.
(§6) The standard inhibitory reference compound is omeprazole,
(§7) Bibliographic reference: Dantzig, H., Minor, P. L. Garrigus, J. L., Fukuda, D. S. and Mynderse, J. S., Studies of the mechanism of action of A80915A, a semi-naphtolquinone natural product, as an inhibitor of gastric (H+/K+)-ATPase, Biochem. Pharmacol. (1991), 42: 2019.
(§8) Assay volume and format: 250 μl in 96-well plate
(§9) Compound addition: [100×] solution in solvent, then [10×] solution in water Maximum tolerable DMSO concentration: 1%

Test [2] has as its target T2, H^+/K^+ ATPase (Sus scrofa, UniProt P19156).
T2 construct: using an enzyme isolated from the rabbit or porcine (pig) fundus; from tissue; host or cells: porcine (pig) gastric fundus
Briefly: H+K+-ATPase assay (p-NPP to p-NP), enzyme from porcine (pig) fundus. The format is biochemical. Particulars: for IC50: enzyme from porcine fundus, pH 6.0, 30 min pre-incubation at 37° C. The protocol: as §1, §2, §3, §4, §5, §6, §7, §8, §9

Test [3] concerns Indomethacin-induced gastric ulceration. Description: Indomethacin-induced gastric ulceration model in rats. It is filed as in vivo, female albino Wistar rats. Particulars: oral, 1 hour before indomethacin 30 mg/kg p.o.; for ED (effect similar to omeprazole 10 mg/kg): Rattus norvegicus, read-out: Indomethacin-induced ulcer model (dose @ which effect is similar to 10mpk of omeprazole). The protocol: The anti-ulcer efficacy of various test compounds (I-A-1 to I-A-11, I-B-1 to I-B-3) was assessed in Indomethacin—induced gastric ulceration model in female albino Wistar rats (Bhattacharya S., Banerjee D., Bauri A. K., Chattopadhyay S., Bandyopadhyay S. K. Healing property of the piper betelphenol, allylpyrocatechol against indomethacin-induced stomach ulceration and mechanism of action. World J Gastroenterol., 13(27): 3705-13, 2007; Lee A. Animal models of gastroduodenal ulcer disease. Bailliere's Best Pract. Res. Clinic Gastroenterol., 14(1): 75-96, 2000). The test compounds were administered orally at various doses (0.2, 0.4, 0.8 and 1.6 mg/kg) in comparison to Omeprazole (10 mg/kg) as standard comparator.
Experiments were conducted in overnight fasted healthy female albino Wistar rats maintained at controlled environmental conditions of temperature and humidity with water given ad libitum. Non-steroidal anti-inflammatory drug (NSAID), Indomethacin (30 mg/kg, p.o.) was used to induce gastric ulcer (treatment groups) with a comparative group without indomethacin treatment (negative group). Indomethacin was administered to treatment groups 1 hour after oral treatment with Vehicle (1% CMC), various doses of test compounds (EPPIs) and Omeprazole (10 mg/kg). After 4-6 hours after indomethacin administration, the animals were sacrificed by cervical dislocation and their stomach was dissected out. Various parameters like macroscopic ulcer index, gastric mucus content and gastric acid pH measurements were undertaken. The rat stomachs were cut opened along the greater curvature for macroscopic determination of ulcer index.

For test [4], the target named is T1, H^+/K^+ ATPase. Particulars: literature value (Scott and Sundell, Eur. J Pharmacol 1985); read-out: IC50 (Rabbit); cited from earlier work.
The target of test [5] is T2, H^+/K^+ ATPase. The following applies: literature value (Keeling et al., Biochem Pharmacol 1985); read-out: IC50 (Pig-Porcine); cited from earlier work.

Like-named read-outs stand apart in the source and are kept apart here.

T2 sequence (P19156 2-1034 limits assumed): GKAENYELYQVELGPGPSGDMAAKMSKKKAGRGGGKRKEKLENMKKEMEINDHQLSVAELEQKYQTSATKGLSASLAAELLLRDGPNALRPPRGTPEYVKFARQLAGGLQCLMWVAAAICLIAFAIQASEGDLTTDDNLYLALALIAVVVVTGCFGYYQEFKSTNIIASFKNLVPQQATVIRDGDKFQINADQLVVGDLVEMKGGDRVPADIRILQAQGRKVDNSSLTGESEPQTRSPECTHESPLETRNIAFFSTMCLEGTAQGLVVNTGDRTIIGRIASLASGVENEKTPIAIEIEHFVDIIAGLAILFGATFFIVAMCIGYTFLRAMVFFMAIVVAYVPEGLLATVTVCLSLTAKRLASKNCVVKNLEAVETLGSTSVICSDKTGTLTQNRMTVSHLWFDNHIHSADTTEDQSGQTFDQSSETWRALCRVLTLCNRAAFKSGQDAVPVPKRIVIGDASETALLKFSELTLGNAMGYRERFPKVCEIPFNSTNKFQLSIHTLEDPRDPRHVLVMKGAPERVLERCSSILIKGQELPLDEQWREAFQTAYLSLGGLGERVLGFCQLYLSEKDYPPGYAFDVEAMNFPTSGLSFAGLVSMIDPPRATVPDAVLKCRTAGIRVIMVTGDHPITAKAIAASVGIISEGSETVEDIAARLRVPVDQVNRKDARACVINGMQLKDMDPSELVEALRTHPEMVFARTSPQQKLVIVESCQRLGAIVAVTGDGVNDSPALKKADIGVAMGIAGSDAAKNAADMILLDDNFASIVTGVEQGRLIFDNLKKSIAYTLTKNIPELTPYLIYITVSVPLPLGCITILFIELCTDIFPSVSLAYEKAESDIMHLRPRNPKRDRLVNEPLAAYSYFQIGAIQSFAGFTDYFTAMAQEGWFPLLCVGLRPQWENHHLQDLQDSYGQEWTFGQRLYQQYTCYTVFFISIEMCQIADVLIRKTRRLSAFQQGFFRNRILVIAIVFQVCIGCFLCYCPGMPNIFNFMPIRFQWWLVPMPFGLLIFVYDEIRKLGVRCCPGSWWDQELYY
T2 sequence (P18434 whole entry partner): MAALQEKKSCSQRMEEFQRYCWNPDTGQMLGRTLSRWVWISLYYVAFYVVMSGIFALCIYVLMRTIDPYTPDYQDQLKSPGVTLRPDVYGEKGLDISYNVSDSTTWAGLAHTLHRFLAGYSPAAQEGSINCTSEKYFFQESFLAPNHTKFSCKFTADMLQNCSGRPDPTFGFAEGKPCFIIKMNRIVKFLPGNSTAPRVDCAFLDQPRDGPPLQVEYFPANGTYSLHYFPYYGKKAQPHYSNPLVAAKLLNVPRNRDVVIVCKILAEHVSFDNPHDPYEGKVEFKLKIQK
T1 sequence (P27112 2-1035 limits assumed): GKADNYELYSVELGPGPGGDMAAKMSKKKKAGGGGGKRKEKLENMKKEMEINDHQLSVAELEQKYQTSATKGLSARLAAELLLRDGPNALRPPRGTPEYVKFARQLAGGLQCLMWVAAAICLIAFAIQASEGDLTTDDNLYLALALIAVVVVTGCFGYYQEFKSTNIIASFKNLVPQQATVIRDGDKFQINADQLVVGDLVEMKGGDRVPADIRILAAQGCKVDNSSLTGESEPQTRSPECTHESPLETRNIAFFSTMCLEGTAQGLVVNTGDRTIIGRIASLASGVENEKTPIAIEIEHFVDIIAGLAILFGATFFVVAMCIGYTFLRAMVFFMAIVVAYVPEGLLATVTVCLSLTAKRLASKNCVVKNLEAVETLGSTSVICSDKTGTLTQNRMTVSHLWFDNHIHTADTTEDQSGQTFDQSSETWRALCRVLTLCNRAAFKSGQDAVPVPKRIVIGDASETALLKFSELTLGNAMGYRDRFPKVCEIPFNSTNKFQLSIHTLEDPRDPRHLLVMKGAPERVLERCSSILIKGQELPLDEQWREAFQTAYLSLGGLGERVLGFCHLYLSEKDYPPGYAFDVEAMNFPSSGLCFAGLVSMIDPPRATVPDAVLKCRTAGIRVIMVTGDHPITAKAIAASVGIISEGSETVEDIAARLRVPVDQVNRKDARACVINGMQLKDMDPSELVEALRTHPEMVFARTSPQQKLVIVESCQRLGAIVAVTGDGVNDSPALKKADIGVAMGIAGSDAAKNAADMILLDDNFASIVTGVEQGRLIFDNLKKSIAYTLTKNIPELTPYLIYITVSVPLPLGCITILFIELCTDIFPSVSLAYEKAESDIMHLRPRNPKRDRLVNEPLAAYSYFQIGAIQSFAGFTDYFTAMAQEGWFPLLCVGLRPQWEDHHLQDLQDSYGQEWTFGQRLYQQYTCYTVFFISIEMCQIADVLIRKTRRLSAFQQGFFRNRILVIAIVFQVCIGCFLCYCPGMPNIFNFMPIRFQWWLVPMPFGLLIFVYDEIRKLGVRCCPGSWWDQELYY
T1 sequence (P18597 whole entry partner): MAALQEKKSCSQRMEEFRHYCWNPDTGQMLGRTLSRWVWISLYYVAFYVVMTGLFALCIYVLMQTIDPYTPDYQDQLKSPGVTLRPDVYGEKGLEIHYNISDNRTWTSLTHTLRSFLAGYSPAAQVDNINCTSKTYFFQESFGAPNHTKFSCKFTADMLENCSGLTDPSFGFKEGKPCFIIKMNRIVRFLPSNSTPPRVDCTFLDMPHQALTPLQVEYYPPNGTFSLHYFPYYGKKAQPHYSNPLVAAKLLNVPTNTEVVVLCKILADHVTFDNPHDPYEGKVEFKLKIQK

In the case of `Cc1cn(-c2nc3cc(F)ccc3[nH]2)c(CSSCc2c(C)c(=O)c(C)cn2-c2nc3cc(F)ccc3[nH]2)c(C)c1=O` [I-A-8], the half-inhibitory concentration (IC50) in test [1] is 1200 nM; in test [2], 1300 nM. In test [3], the ED (effect similar to omeprazole 10 mg/kg) was determined as 1.6 mg/kg.
The matching figures for `COc1ccc2[nH]c(-n3ccc(=O)c(OC)c3CSSCc3c(OC)c(=O)ccn3-c3nc4cc(OC)ccc4[nH]3)nc2c1` [I-A-7, 2-((2-((1,4-dihydro-3-methoxy-1-(5-methoxy-1H-benzo[d]imidazol-2-yl)-4-oxopyridin-2-yl)methyl)disulfinyl)methyl)-3-methoxy-1-(5-methoxy-1H-benzo[d]imidazol-2-yl)pyridin-4(1H)-one]: 1200 nM, 4700 nM and 1.6 mg/kg.
For the molecule `COc1ccc2[nH]c(-n3cc(C)c(=O)c(C)c3CSSCc3c(C)c(=O)c(C)cn3-c3nc4cc(OC)ccc4[nH]3)nc2c1` [I-A-6], the results for the IC50 in test [1] and in test [2] were 1300 nM and 4100 nM, respectively.
In the case of `O=c1ccn(-c2nc3ccccc3[nH]2)c(C[S+]([O-])[S+]([O-])Cc2cc(=O)ccn2-c2nc3ccccc3[nH]2)c1` (centres unmarked) [I-A-1, 2-((2-((1-(1H-benzo[d]imidazol-2-yl)-1,4-dihydro-4-oxopyridin-2-yl)methyl)disulfinyl)methyl)-1-(1H-benzo[d]imidazol-2-yl)pyridin-4(1H)-one], the IC50 is 1000 nM in test [1] and 1800 nM in test [2]. The “Indomethacin-induced ulcer model (dose @ which effect is similar to 10mpk of omeprazole)” value in test [3] was 1.6 mg/kg.
For the molecule `Cc1cn(-c2nc3ccccc3[nH]2)c(CSSCc2c(C)c(=O)c(C)cn2-c2nc3ccccc3[nH]2)c(C)c1=O` [I-A-2], the IC50 in test [1] is 1000 nM; in test [2], 1300 nM. Also, the ED (effect similar to omeprazole 10 mg/kg) in test [3] stood at 1.6 mg/kg.
For `Cc1ccc2[nH]c(-n3cc(C)c(=O)c(C)c3CSSCc3c(C)c(=O)c(C)cn3-c3nc4cc(C)ccc4[nH]3)nc2c1` [I-A-4], the 50% inhibitory concentration (IC50) was 1600 nM in test [1] and 2900 nM in test [2].
As to `COc1c(CSSCc2c(OC)c(=O)ccn2-c2nc3cc(C(F)(F)F)ccc3[nH]2)n(-c2nc3cc(C(F)(F)F)ccc3[nH]2)ccc1=O` [I-A-9], the results for the IC50 in test [1] and in test [2] were 1100 nM and 1700 nM, respectively. Also, the ED (effect similar to omeprazole 10 mg/kg) in test [3] came to 1.6 mg/kg.
As for `COc1ccc2[nH]c([S+]([O-])Cc3ncc(C)c(OC)c3C)nc2c1` (centres unmarked) [Omeprazole, omeprazole], the 50% inhibitory concentration (IC50) in test [4] is 4000 nM; in test [5], 3900 nM.
`Cc1cn(-c2nc3ncccc3[nH]2)c(CSSCc2c(C)c(=O)c(C)cn2-c2nc3ncccc3[nH]2)c(C)c1=O` [I-B-1, 2-((2-((1,4-dihydro-1-(1H-imidazo[4,5-b]pyridin-2-yl)-3,5-dimethyl-4-oxopyridin-2-yl)methyl)disulfinyl)methyl)-1-(1H-imidazo[4,5-b]pyridin-2-yl)-3,5-dimethylpyridin-4(1H)-one]: the IC50 in test [1] came out at 2800 nM; in test [2] it was 14000 nM. Also, the ED (effect similar to omeprazole 10 mg/kg) in test [3] was determined as 1.6 mg/kg.
Consider `COc1ccc2[nH]c(-n3cc(C)c(=O)c(C)c3C[S+]([O-])[S+]([O-])Cc3c(C)c(=O)c(C)cn3-c3nc4nc(OC)ccc4[nH]3)nc2n1` (centres unmarked) [I-B-3, 2-((2-((1,4-dihydro-1-(5-methoxy-1H-imidazo[4,5-b]pyridin-2-yl)-3,5-dimethyl-4-oxopyridin-2-yl)methyl)disulfinyl)methyl)-1-(5-methoxy-1H-imidazo[4,5-b]pyridin-2-yl)-3,5-dimethylpyridin-4(1H)-one], for which the “percent inhibition of the control enzyme activity (printed in IC50 (Pig-Porcine) column)” value in test [2] (@ 3-30 uM) was 45% @ 3-30 uM. Moreover, the “Indomethacin-induced ulcer model (dose @ which effect is similar to 10mpk of omeprazole)” value in test [3] is reported as 1.6 mg/kg.
On to `COc1c(CSSCc2c(OC)c(=O)ccn2-c2nc3cc(C)ccc3[nH]2)n(-c2nc3cc(C)ccc3[nH]2)ccc1=O` [I-A-5], for which the IC50 in test [1] stood at 1300 nM; in test [2], 2300 nM. Besides, in test [3], the ED (effect similar to omeprazole 10 mg/kg) stood at 1.6 mg/kg.
For `COc1c(CSSCc2c(OC)c(=O)ccn2-c2nc3cc(OC(F)F)ccc3[nH]2)n(-c2nc3cc(OC(F)F)ccc3[nH]2)ccc1=O` [I-A-11] the same measures were 1500 nM, 3300 nM and 1.6 mg/kg.
`COc1ccc2[nH]c(-n3ccc(=O)c(OC)c3CSSCc3c(OC)c(=O)ccn3-c3nc4nc(OC)ccc4[nH]3)nc2n1` [I-B-2]: the results for the IC50 in test [1] and in test [2] were 2000 nM and 8400 nM, respectively. Moreover, the ED (effect similar to omeprazole 10 mg/kg) in test [3] was found to be 1.6 mg/kg.
Turning to `COc1c(CSSCc2c(OC)c(=O)ccn2-c2nc3ccccc3[nH]2)n(-c2nc3ccccc3[nH]2)ccc1=O` [I-A-3], the IC50 in test [1] was determined as 1100 nM; in test [2], 2000 nM. Also, the ED (effect similar to omeprazole 10 mg/kg) in test [3] is 1.6 mg/kg.

Broadly, the IC50 is the point on the concentration scale where inhibition reaches its midpoint.
